Patent US8471005B2 (Cephalon, Inc., priority 2008, dated 2013)
Like-named read-outs stand apart in the source and are kept apart here.

Experiments:
JAK2 = target: T1, JAK2 (Homo sapiens, UniProt O60674); assay: Recombinant Human JAK2 Kinase Assay (TRF); format: biochemical; settings: read-out: JAK2 Potency
T1 construct: host or cells: baculovirus expression system
Procedure, shortened: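 Kinase activity of baculovirus-expressed JAK2 is followed on a surface-immobilised biotinylated peptide, with the reaction run for 20 min at room temperature in buffer containing 0.2 μM ATP and manganese. Phosphorylation is read with Eu-N1 PY100 antibody.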

ALK = target: T2, ALK (Homo sapiens, UniProt Q9UM73); assay: ALK Kinase Assay (ELISA/TRF, PLC-γ substrate); format: biochemical; settings: read-out: ALK Potency
T2 construct: host or cells: baculovirus expression system
Procedure, shortened: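 IC50 values derive from percent inhibition plotted against log10 compound concentration and fitted to a variable-slope sigmoidal equation. The underlying reaction used 30 ng/ml ALK acting on immobilized PLC-γ (10 μg/mL in TBS) at 37° C for 15 minutes, read with Eu-N1 PT66 antibody.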

[1] = JAK2 kinase inhibition, 0.2 μM ATP
[2] = ALK kinase inhibition, 1 μM ATP

T1 sequence (O60674 whole entry): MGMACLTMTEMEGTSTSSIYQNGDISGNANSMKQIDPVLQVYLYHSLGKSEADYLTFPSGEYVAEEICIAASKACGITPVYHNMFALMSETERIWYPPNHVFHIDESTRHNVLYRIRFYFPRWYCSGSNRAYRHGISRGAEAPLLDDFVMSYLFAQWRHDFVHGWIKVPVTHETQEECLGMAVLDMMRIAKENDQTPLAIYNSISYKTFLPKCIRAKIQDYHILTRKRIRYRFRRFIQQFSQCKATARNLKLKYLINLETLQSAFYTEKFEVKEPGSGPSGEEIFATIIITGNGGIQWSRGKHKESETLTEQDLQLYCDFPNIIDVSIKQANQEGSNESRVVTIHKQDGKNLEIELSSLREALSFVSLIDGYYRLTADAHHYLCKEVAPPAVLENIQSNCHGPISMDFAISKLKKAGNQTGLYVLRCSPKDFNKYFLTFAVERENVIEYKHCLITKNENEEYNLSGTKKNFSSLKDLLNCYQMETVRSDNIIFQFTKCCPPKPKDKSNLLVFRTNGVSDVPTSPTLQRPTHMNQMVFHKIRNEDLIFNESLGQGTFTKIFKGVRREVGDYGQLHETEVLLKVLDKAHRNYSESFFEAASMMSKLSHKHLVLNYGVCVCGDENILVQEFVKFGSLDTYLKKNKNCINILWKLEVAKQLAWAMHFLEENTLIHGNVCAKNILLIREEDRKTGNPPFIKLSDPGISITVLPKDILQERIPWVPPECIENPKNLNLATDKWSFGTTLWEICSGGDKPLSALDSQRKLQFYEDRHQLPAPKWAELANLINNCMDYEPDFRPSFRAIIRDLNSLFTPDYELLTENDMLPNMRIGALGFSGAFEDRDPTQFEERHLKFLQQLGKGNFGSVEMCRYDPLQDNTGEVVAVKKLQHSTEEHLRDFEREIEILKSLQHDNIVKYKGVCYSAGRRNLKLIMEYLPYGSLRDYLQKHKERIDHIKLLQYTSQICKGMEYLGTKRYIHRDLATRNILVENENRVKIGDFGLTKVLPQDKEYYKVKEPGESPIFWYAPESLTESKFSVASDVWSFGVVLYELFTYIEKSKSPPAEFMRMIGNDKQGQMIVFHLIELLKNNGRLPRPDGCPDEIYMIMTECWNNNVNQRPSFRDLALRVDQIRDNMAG
T2 sequence (Q9UM73 19-1620): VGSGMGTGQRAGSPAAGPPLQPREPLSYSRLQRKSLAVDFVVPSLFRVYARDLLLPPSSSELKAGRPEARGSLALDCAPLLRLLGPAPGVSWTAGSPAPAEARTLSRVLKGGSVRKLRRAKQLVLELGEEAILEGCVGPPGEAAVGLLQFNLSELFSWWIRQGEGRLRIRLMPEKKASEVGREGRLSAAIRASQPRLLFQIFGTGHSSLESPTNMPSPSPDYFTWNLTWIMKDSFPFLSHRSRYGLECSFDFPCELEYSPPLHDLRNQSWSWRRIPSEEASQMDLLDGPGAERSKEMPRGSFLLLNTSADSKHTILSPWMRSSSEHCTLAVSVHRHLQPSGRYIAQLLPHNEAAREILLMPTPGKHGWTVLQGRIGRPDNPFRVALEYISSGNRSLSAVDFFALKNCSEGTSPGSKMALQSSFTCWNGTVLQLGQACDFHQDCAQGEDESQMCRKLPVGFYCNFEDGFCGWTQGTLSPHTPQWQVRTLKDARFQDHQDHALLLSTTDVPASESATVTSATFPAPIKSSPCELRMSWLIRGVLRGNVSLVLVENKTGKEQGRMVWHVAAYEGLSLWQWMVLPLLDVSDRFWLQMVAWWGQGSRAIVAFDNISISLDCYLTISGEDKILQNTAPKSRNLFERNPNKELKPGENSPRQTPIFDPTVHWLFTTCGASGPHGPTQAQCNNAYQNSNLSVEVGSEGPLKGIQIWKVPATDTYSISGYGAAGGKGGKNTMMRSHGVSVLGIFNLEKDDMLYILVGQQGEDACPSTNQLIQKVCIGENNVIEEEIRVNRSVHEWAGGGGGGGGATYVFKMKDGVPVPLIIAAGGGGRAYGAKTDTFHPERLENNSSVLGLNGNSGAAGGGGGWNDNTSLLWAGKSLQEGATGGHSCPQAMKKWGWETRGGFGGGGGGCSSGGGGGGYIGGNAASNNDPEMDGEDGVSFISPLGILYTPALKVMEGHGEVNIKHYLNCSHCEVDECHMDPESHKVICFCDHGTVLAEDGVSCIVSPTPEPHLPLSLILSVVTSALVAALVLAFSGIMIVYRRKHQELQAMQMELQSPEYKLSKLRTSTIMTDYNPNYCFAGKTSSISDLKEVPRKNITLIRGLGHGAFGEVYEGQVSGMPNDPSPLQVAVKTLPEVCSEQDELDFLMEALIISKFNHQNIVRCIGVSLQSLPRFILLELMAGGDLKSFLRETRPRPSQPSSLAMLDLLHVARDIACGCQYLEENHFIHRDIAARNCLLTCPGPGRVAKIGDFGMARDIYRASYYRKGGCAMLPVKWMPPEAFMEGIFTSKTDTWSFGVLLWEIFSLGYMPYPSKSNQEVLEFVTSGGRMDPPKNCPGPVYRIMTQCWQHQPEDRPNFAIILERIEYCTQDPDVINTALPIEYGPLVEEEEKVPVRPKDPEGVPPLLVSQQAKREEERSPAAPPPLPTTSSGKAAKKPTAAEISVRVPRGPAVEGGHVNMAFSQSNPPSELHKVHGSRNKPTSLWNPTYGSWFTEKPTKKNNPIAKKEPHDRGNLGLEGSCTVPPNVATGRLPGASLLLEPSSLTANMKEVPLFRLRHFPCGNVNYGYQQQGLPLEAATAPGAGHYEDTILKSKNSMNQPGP

Row | Structure (SMILES) | IC50 (JAK2; JAK2 Kinase Inhibition) [µM] | IC50 (ALK; ALK Kinase Inhibition) [µM] | IC50 (JAK2; [1]) [µM] | IC50 (ALK; [2]) [µM]
1 | Clc1cc(N2CCOCC2)ccc1Nc1ncc2c(Cl)cc(-c3ccccc3)n2n1 [Example 80, (2-Chloro-4-morpholin-4-yl-phenyl)-(5-chloro-7-phenyl-pyrrolo[2,1-f][1,2,4]triazin-2-yl)-amine] | < 0.1 | > 10 | – | –
2 | COc1ccc(Cl)cc1-c1ccc2cnc(Nc3cccc(N4CCC(N5CCOCC5)CC4)c3)nn12 [Example 196, [7-(5-Chloro-2-methoxy-phenyl)-pyrrolo[2,1-f][1,2,4]triazin-2-yl]-[3-(4-morpholin-4-yl-piperidin-1-yl)-phenyl]-amine] | < 0.1 | < 0.1 | – | –
3 | COc1cc(N2CCCN(C)CC2)ccc1Nc1ncc2ccc(-c3ccccc3N(C)S(C)(=O)=O)n2n1 [Example 771, N-(2-{2-[2-Methoxy-4-(4-methyl-[1,4]diazepan-1-yl)-phenylamino]-pyrrolo[2,1-f][1,2,4]triazin-7-yl}-phenyl)-N-methyl-methanesulfonamide] | – | – | 0.1 to 1 | < 0.1
4 | COc1cc(CN2CCN(C)CC2)ccc1Nc1ncc2ccc(-c3ccccc3N(C)S(C)(=O)=O)n2n1 [Example 1251, N-(2-{2-[2-Methoxy-4-(4-methyl-piperazin-1-ylmethyl)-phenylamino]-pyrrolo[2,1-f][1,2,4]triazin-7-yl}-phenyl)-N-methyl-methanesulfonamide] | – | – | 1 to 10 | < 0.1
5 | CS(=O)(=O)c1cccc(-c2ccc3cnc(Nc4ccc(N5CCOCC5)cc4)nn23)c1 [Example 43, [7-(3-Methanesulfonyl-phenyl)-pyrrolo[2,1-f][1,2,4]triazin-2-yl]-(4-morpholin-4-yl-phenyl)-amine] | < 0.1 | 0.1 to 1 | – | –
6 | COc1cc(C2CCNCC2)ccc1Nc1ncc2ccc(-c3cccc(S(=O)(=O)NC(C)(C)C)c3)n2n1 [Example 691, N-tert-Butyl-3-[2-(2-methoxy-4-piperidin-4-yl-phenylamino)-pyrrolo[2,1-f][1,2,4]triazin-7-yl]-benzenesulfonamide] | – | – | 0.1 to 1 | < 0.1
7 | Clc1cccc(-c2ccc3cnc(Nc4ccc5c(c4)OCO5)nn23)c1 [Example 150, 1,3-Benzodioxol-5-yl-[7-(3-chloro-phenyl)-pyrrolo[2,1-f][1,2,4]triazin-2-yl]-amine] | < 0.1 | > 10 | – | –
8 | COc1ccccc1-c1ccc2cnc(Nc3ccc4c(c3)COCCN4C)nn12 [Example 618, [7-(2-Methoxy-phenyl)-pyrrolo[2,1-f][1,2,4]triazin-2-yl]-(1-methyl-1,2,3,5-tetrahydro-benzo[e][1,4]oxazepin-7-yl)-amine] | – | – | < 0.1 | 0.1 to 1
9 | Cn1ncc2ccc(Nc3ncc4ccc(-c5cccc(S(=O)(=O)NC(C)(C)C)c5)n4n3)cc21 [Example 1317, N-tert-Butyl-3-[2-(1-methyl-1H-indazol-6-ylamino)-pyrrolo[2,1-f][1,2,4]triazin-7-yl]-benzenesulfonamide] | – | – | < 0.1 | 1 to 10
10 | CC(C)(C)NS(=O)(=O)c1cccc(-c2ccc3cnc(Nc4ccc(C5CCNCC5O)cc4)nn23)c1 (stereo not drawn) [Example 1014, N-tert-Butyl-3-{2-[4-(3-hydroxy-piperidin-4-yl)-phenylamino]-pyrrolo[2,1-f][1,2,4]triazin-7-yl}-benzenesulfonamide] | – | – | < 0.1 | < 0.1
11 | COC[C@H](O)CN1CCN(Cc2ccc(Nc3ncc4ccc(-c5ccccc5OC)n4n3)c(OC)c2)CC1 [Example 1227, (R)-1-Methoxy-3-(4-{3-methoxy-4-[7-(2-methoxy-phenyl)-pyrrolo[2,1-f][1,2,4]triazin-2-ylamino]-benzyl}-piperazin-1-yl)-propan-2-ol] | – | – | 0.1 to 1 | < 0.1
12 | CN1CCN(c2ccc(Nc3ncc4ccc(-c5ccc(C(=O)N6CCOCC6)cc5)n4n3)cc2)CC1 [Example 19, (4-{2-[4-(4-Methyl-piperazin-1-yl)-phenylamino]-pyrrolo[2,1-f][1,2,4]triazin-7-yl}-phenyl)-morpholin-4-yl-methanone] | < 0.1 | 0.1 to 1 | – | –
